# Experimental data as given in patent US12599676B2, “Cytotoxic imidazo[1,2-A]pyridine compounds and their use in therapy” (MyricX Pharma Limited, priority 2022, dated 2026).
# Legend:
# [1] = test system: SU-DHL-10 cell line (human B cell lymphoma); assay: Cell cytotoxicity in SU-DHL-10 cell line (CellTiter-Glo); type: cell-based; conditions: 72 h treatment, CTG
# Protocol: Certain Example compounds of the invention and Comparator Compound 1 were tested in the SU-DHL-10 cell line (human B cell lymphoma). Compounds which show efficacy in this assay are expected to be useful as agents for treating or preventing hyperproliferative disorders such as cancer.
# Cells were seeded in 96-well microplates and treated with compounds or cisplatin (as a positive control) at 9 increasing concentrations in technical triplicate. […] On day 1, 90 μL of various cell suspensions with the number of cells ranging from 5000-8000 cells/well were seeded into wells of a 96-well plate (Corning). The number of cells to be seeded was previously determined. • 2. All 96-wells plates with cells were placed in an incubator overnight at 37° C. with 5% CO2. • 3. On day 2, cells were observed under a microscope ensuring the cells treated with vehicle control were in good condition. • 4. A dilution series of the test compounds and cisplatin were prepared at 10× the final concentrations required. 10 μL/well of 10× compound solution was added to the corresponding plates. The final volume was 100 μL/well for all the plates. Final DMSO concentration was 0.1%. • 5. On day 5 (after 72 hours of incubation), 50 μL of CTG reagent was added to each well. • 6. Contents were mixed for 5 minutes on an orbital shaker to facilitate cell lysis. • 7. The plate was allowed to incubate at room temperature for 10 minutes to stabilize luminescent signals.
# Luminescence was recorded using an EnVision Multi Label Reader. Data analysis was performed using GraphPad Prism 8.0.
# To calculate IC50, a concentration-response curve was generated using a nonlinear regression model with a sigmoidal concentration response. The formula for calculating the % of viable cells was shown below, and the IC50s are automatically generated by GraphPad Prism 8.0.
# (LumTest article=luminescence in test article treated well; LumNone treated=luminescence in vehicle treated well; LumMedium control=luminescence in a well containing only medium and no cells; LumNone treated-LumMedium control was set as 100%)
# [2] = Caco-2 cell permeability assay; type: in vitro ADME; conditions: human, Caco-2, pH 7.4, basal to apical Papp, pH 7.4, 2.5 h
# Protocol: (§1) Certain Example compounds and Comparative Example 1 were tested for their apical to basal (AB) and basal to apical (BA) permeability in Caco-2 cells.
# (§2) Cell Culture: Caco-2 cells were grown for 10 days in 96-well plates in HBSS buffer containing 10 mM HEPES. Both the apical and basal pH was buffered at pH 7.4. The apical/basal volumes were 75 μl and 250 μl respectively. The incubation time was 2.5 h at 37° C. (without shaking) under 5% CO2 & 95% relative humidity.
# (§3) Cell Seeding: Cells were seeded at a density of 18750 cells/well (membrane area=0.0804 cm^2) in a 96 well plate.
# (§4) AB Assay: 75 μl of cell suspension was added at a density 2.5×10^5 cells/ml to the apical wells. 40 ml media was added to the feeder tray. The plates were placed in the incubator (37° C., 5% CO2 and controlled humidity). The Caco-2 cells were grown for 10 days with a media change on every alternate day.
# (§5) BA Assay: 25 μl of cell suspension was added at a density of 7.5×10^5 cells/ml to the bottom side (keeping the plate upside down) of apical wells. The plate (upside down position) was placed in the incubator (37° C., 5% CO2 and 95% Relative humidity) for 2 h. The plate was turned right side up. 75 μl media was added to the apical wells and 40 ml media to the feeder tray.
# (§6) Permeablity Assay: The apical and basal wells were washed with buffer (pH 7.4) and 250 μl buffer was added to the wells of the basal plate. 75 μl of compound solution (2 μM, dissolved in water with 1% DMSO) was transferred to the apical wells (n=2). The apical plate was placed onto the basal plate. The lid was placed on to prevent evaporation. The assembly was incubated at 37° C. for 2.5 h (without shaking) under 5% CO2 and 95% relative humidity. After incubation the apical plate was separated from the basal plate. Aliquots were taken out from the acceptor and donor wells, diluted and quantified using LC-MS/MS along with initial donor samples.
# (§7) Membrane Integrity Test: Solution in the apical wells was discarded by inverting the plate and soaking onto tissue paper. 250 μl buffer (pH 7.4) was added to each well of basal plate and 75 μl of Lucifer Yellow (LY; 0.1 mg/ml) in buffer (pH 7.4) to the wells of apical plate. The apical plate was placed onto the basal plate and the lid used to prevent evaporation. The assembly was incubated at 37° C. for 1 h (without shaking) under 5% CO2 and 95% relative humidity. The apical plate was separated from the basal plate. Fluorescence (Ex: 432 nm, Em: 530 nm) of aliquots (100 ul) was measured from basal wells. Fluorescence of 100 μl buffer (pH 7.4) and 100 μl LY(0.1 mg/ml) was also measured. Wells having more than 1% fluorescence intensity with respect to 0.1 mg/ml LY were considered non-integrated membrane. Such wells, if any, were not considered for permeability calculation.
# (§8) Calculation: Drug was detected and quantified by LC-MS/MS. Data generated took the form of an apparent permeability (Papp) value. Papp=[Va/(AreaxTime)]×(LC-MS Area of Acceptor sample×Sample dilution factor/LC-MS Area of Initial Donor). Va=Volume of Acceptor Well (in ml)=0.25, Vd=Volume of Donor Well (in ml)=0.075, Area=Surface area of the membrane (cm2)=0.0804, Time=Time of incubation (sec)=9000 Results: The results of the assay are shown in Table 3 below.
# Caco-2 cells = assay: Caco-2 cell permeability assay; type: in vitro ADME; conditions: 2 μM, pH 7.4, 2.5 h; for Caco-2 A-B: apical to basal Papp; for Caco-2 B-A: basal to apical Papp
# Protocol: as §1, §2, §3, §4, §5, §6, §7, §8
Structure (SMILES),IC50 [1],"Papp B→A at 2.5 h, 2 μM [2]",Caco-2 A-B (Caco-2 cells),"IC50 ([1]; Homo sapiens, SU-DHL10, 72 h)",Caco-2 B-A (Caco-2 cells)
"Cc1c(CCOc2cc(F)ccc2-c2ccc3ncc(CN(C)C)n3c2)c(C(C)O)nn1C (single isomer, unassigned) [Example 3, 1-(4-(2-(2-(3-((dimethylamino)methyl)imidazo[1,2-a]pyridin-6-yl)-5-fluorophenoxy)ethyl)-1,5-dimethyl-1H-pyrazol-3-yl)ethan-1-ol]",9.4 nM,22.6 ×10⁻⁶ cm/s,1.2 ×10⁻⁶ cm/s,–,–
"Cc1c(CCOc2cc(F)ccc2-c2ccc3ncc(CN(C)C)n3c2)c(C(C)O)nn1C (single isomer, unassigned) [Example 4, 1-(4-(2-(2-(3-((dimethylamino)methyl)imidazo[1,2-a]pyridin-6-yl)-5-fluorophenoxy)ethyl)-1,5-dimethyl-1H-pyrazol-3-yl)ethan-1-ol]",–,–,1.3 ×10⁻⁶ cm/s,12 nM,24.9 ×10⁻⁶ cm/s
"CNCc1cnc2ccc(-c3ccc(F)cc3OCCc3c(C(O)C(C)(C)C)nn(C)c3C)cn12 (single isomer, unassigned) [Example 9, 1-(4-(2-(5-fluoro-2-(3-((methylamino)methyl)imidazo[1,2-a]pyridin-6-yl)phenoxy)ethyl)-1,5-dimethyl-1H-pyrazol-3-yl)-2,2-dimethylpropan-1-ol]",0.6 nM,8.02 ×10⁻⁶ cm/s,0.26 ×10⁻⁶ cm/s,–,–
"CNCc1cnc2ccc(-c3ccc(F)cc3OCCc3c(C(O)C(C)(C)C)nn(C)c3C)cn12 (single isomer, unassigned) [Example 10, 1-(4-(2-(5-fluoro-2-(3-((methylamino)methyl)imidazo[1,2-a]pyridin-6-yl)phenoxy)ethyl)-1,5-dimethyl-1H-pyrazol-3-yl)-2,2-dimethylpropan-1-ol]",2 nM,–,0.305 ×10⁻⁶ cm/s,–,8.89 ×10⁻⁶ cm/s
"CNCc1cnc2ccc(-c3ccc(F)c(F)c3OCCc3c(C(O)C(C)(C)C)nn(C)c3C)cn12 (single isomer, unassigned) [Example 13, 1-(4-(2-(2,3-difluoro-6-(3-((methylamino)methyl)imidazo[1,2-a]pyridin-6-yl)phenoxy)ethyl)-1,5-dimethyl-1H-pyrazol-3-yl)-2,2-dimethylpropan-1-ol]",0.7 nM,–,–,–,–
"Cc1c(CCOc2c(-c3ccc4ncc(CN(C)C)n4c3)ccc(F)c2F)c(C(O)C(C)(C)C)nn1C (single isomer, unassigned) [Example 15, 1-(4-(2-(6-(3-((dimethylamino)methyl)imidazo[1,2-a]pyridin-6-yl)-2,3-difluorophenoxy)ethyl)-1,5-dimethyl-1H-pyrazol-3-yl)-2,2-dimethylpropan-1-ol]",1.2 nM,7.44 ×10⁻⁶ cm/s,1.345 ×10⁻⁶ cm/s,–,–
"Cc1c(CCOc2c(-c3ccc4ncc(CN(C)C)n4c3)ccc(F)c2F)c(C(O)C(C)(C)C)nn1C (single isomer, unassigned) [Example 16, 1-(4-(2-(6-(3-((dimethylamino)methyl)imidazo[1,2-a]pyridin-6-yl)-2,3-difluorophenoxy)ethyl)-1,5-dimethyl-1H-pyrazol-3-yl)-2,2-dimethylpropan-1-ol]",0.2 nM,–,1.395 ×10⁻⁶ cm/s,–,9.06 ×10⁻⁶ cm/s
"CNCc1cnc2ccc(-c3ccc(F)cc3OCCc3c(C(O)C(C)(C)C)nn(C)c3C)cn12 (centres unmarked) [Example 8, 1-(4-(2-(5-fluoro-2-(3-((methylamino)methyl)imidazo[1,2-a]pyridin-6-yl)phenoxy)ethyl)-1,5-dimethyl-1H-pyrazol-3-yl)-2,2-dimethylpropan-1-ol]",–,–,–,0.7 nM,–
"Cc1c(CCOc2cc(F)ccc2-c2ccc3ncc(CN(C)C)n3c2)c(C(O)C(C)(C)C)nn1C (centres unmarked) [Example 11, 1-(4-(2-(2-(3-((dimethylamino)methyl)imidazo[1,2-a]pyridin-6-yl)-5-fluorophenoxy)ethyl)-1,5-dimethyl-1H-pyrazol-3-yl)-2,2-dimethylpropan-1-ol]",–,78 ×10⁻⁶ cm/s,15.9 ×10⁻⁶ cm/s,0.9 nM,–
"Cc1c(CCOc2c(-c3ccc4ncc(CN)n4c3)ccc(F)c2F)c(C(O)C(C)(C)C)nn1C (centres unmarked) [Example 17, 1-(4-(2-(6-(3-(aminomethyl)imidazo[1,2-a]pyridin-6-yl)-2,3-difluorophenoxy)ethyl)-1,5-dimethyl-1H-pyrazol-3-yl)-2,2-dimethylpropan-1-ol]",–,–,–,1 nM,–
"Cc1c(CCOc2cc(F)ccc2-c2ccc3ncc(CN(C)C)n3c2)c(C(C)(C)O)nn1C [Example 19, 2-(4-(2-(2-(3-((dimethylamino)methyl)imidazo[1,2-a]pyridin-6-yl)-5-fluorophenoxy)ethyl)-1,5-dimethyl-1H-pyrazol-3-yl)propan-2-ol]",–,29.4 ×10⁻⁶ cm/s,3.5 ×10⁻⁶ cm/s,–,–
"Cc1c(CCOc2c(-c3ccc4ncc(CN)n4c3)ccc(F)c2F)c(C(C)(C)O)nn1C [Example 20, 2-[4-(2-{6-[3-(aminomethyl)imidazo[1,2-a]pyridin-6-yl]-2,3-difluorophenoxy}ethyl)-1,5-dimethyl-1H-pyrazol-3-yl]propan-2-ol]",–,–,–,12 nM,–
"CCNCc1cnc2ccc(-c3ccc(F)cc3OCCc3c(C(C)(C)O)nn(C)c3C)cn12 [Example 22, 2-{4-[2-(2-{3-[(ethylamino)methyl]imidazo[1,2-a]pyridin-6-yl}-5-fluorophenoxy)ethyl]-1,5-dimethyl-1H-pyrazol-3-yl}propan-2-ol]",–,–,–,9 nM,–
"Cc1c(CCOc2cc(F)ccc2-c2ccc3ncc(CCN)n3c2)c(C(C)(C)O)nn1C [Example 23, 2-(4-(2-(2-(3-(2-aminoethyl)imidazo[1,2-a]pyridin-6-yl)-5-fluorophenoxy)ethyl)-1,5-dimethyl-1H-pyrazol-3-yl)propan-2-ol]",–,9.7 ×10⁻⁶ cm/s,0 ×10⁻⁶ cm/s,–,–
"Cc1c(CCOc2cc(F)ccc2-c2ccc3ncc(CN(C)C)n3c2)c(C(O)C(C)C)nn1C (centres unmarked) [Example 24, 1-(4-(2-(2-(3-((dimethylamino)methyl)imidazo[1,2-a]pyridin-6-yl)-5-fluorophenoxy)ethyl)-1,5-dimethyl-1H-pyrazol-3-yl)-2-methylpropan-1-ol]",–,–,–,0.7 nM,–
"CNCc1cnc2ccc(-c3ccc(F)c(F)c3OCCc3c(C(O)C(C)C)nn(C)c3C)cn12 (centres unmarked) [Example 25, 1-{4-[2-(2,3-difluoro-6-{3-[(methylamino)methyl]imidazo[1,2-a]pyridin-6-yl}phenoxy)ethyl]-1,5-dimethyl-1H-pyrazol-3-yl}-2-methylpropan-1-ol]",–,–,–,1 nM,–
